Reference: patent publication US4345938A, “Herbicidal 2-haloacetanilides” (Monsanto Company, priority 1980, dated 1982)
Like-named read-outs stand apart in the source and are kept apart here.

What was measured:
Echinochloa crus-galli = assay: Field transplant rice test, applied 9 DAT, EC; type: in vivo; conditions: for inhibition at 375 g/ha / inhibition at 750 g/ha / inhibition at 1500 g/ha / inhibition at 3000 g/ha: Echinochloa crus-galli, 216 h, read-out: Percent Inhibition, EC; for inhibition at 375 g/ha: 0.375 Kg/Ha; for inhibition at 750 g/ha: 0.75 Kg/Ha; for inhibition at 1500 g/ha: 1.5 Kg/Ha; for inhibition at 3000 g/ha: 3.0 Kg/Ha; for selectivity factor (GR15/GR85), EC in transplant rice: between 3 WAT and 7 WAT
Source text: (§1) In the discussion of data below, occasional reference is made to herbicide application rates symbolized as "GR15 " and "GR85 "; these rates are given in kilograms per hectare (kg/ha) which are convertible into pounds per acre (lbs/A) by dividing the kg/ha rate by 1.12.
(§2) A further guide to the effectiveness of a chemical as a selective herbicide is the "selectivity factor" ("SF") for a herbicide in given crops and weeds. The selectivity factor is a measure of the relative degree of crop safety and weed injury and is expressed in terms of the GR15 /GR85 ratio, i.e., the GR15 rate for the crop divided by the GR85 rate for the weed, both rates in kg/ha (lb/A.)
(§3) The test data in Table III for all compounds was obtained under identical test conditions. The weeds used in the tests herein have the following abbreviations in the tables: Echinochloa crus-galli (EC), Monochloria vaginalis (MV), Cyperus Serotinus (CS), Eleocharis Kuroguwai (EK) and Sagittaria trifolia (ST).
(§4) In further comparative tests, a preferred compound of this invention (Example 1) was tested in the field with prior art Compounds A-D. These tests were conducted under conditions reflecting herbicide application times generally favorable to all herbicides in the test. The timing of application of herbicides to transplant rice is very important, whether, as in some instances, prior to transplanting the rice; in other instances, at the time of transplanting or else after transplanting. Application times are conventionally referred to as "days before transplant" (DBT) or "days after transplant" ("DAT"). The field test data in Table IV was obtained from a test in which the herbicides were applied at the time of transplant, i.e., "0 DAT", with observations being made weekly up to six weeks after transplant ("WAT") beginning at two weeks after transplant; for illustrative and representative purposes, only the early, middle and late period observations, i.e., 2 WAT, 4 WAT and 6 WAT, are shown in Table IV. The data in Table IV is for rates of application common to all herbicides in the test, i.e., from 3.0 kg/ha (2.67 lb/A) down to 0.375 kg/ha (0.34 lb/A). All herbicides were applied at their actual or expected use rates, i.e., as granules containing 2.5% by weight herbicide for the compound of Example 1, Compounds B, C and D and 5.0% by weight for Compound A.
(§5) In Table V are presented field data showing the relative performance of the compound of Example 1 and Compounds A-D applied 9 DAT, with observations being made weekly from 3 WAT to 7 WAT; again, for illustrative and representative purposes, only the early, middle and late period observations are reported in Table V, the herbicide rates and concentrations of active ingredients the same as is shown in Table IV.

Cyperus serotinus = assay: Field transplant rice test, applied 9 DAT, CS; type: in vivo; conditions: for inhibition at 375 g/ha / inhibition at 750 g/ha / inhibition at 1500 g/ha / inhibition at 3000 g/ha: Cyperus serotinus, 216 h, read-out: Percent Inhibition, CS; for inhibition at 375 g/ha: 0.375 Kg/Ha; for inhibition at 750 g/ha: 0.75 Kg/Ha; for inhibition at 1500 g/ha: 1.5 Kg/Ha; for inhibition at 3000 g/ha: 3.0 Kg/Ha; for selectivity factor (GR15/GR85), CS in transplant rice: between 3 WAT and 7 WAT
Source text: as §1, §2, §3, §4, §5

Compound | inhibition at 375 g/ha (Echinochloa crus-galli; 3 WAT) | inhibition at 375 g/ha (Echinochloa crus-galli; 5 WAT) | inhibition at 375 g/ha (Echinochloa crus-galli; 7 WAT) | inhibition at 750 g/ha (Echinochloa crus-galli; 3 WAT) | inhibition at 750 g/ha (Echinochloa crus-galli; 5 WAT) | inhibition at 750 g/ha (Echinochloa crus-galli; 7 WAT) | inhibition at 1500 g/ha (Echinochloa crus-galli; 3 WAT) | inhibition at 1500 g/ha (Echinochloa crus-galli; 5 WAT) | inhibition at 1500 g/ha (Echinochloa crus-galli; 7 WAT) | inhibition at 3000 g/ha (Echinochloa crus-galli; 3 WAT) | inhibition at 3000 g/ha (Echinochloa crus-galli; 5 WAT) | inhibition at 3000 g/ha (Echinochloa crus-galli; 7 WAT) | selectivity factor (GR15/GR85), EC in transplant rice (Echinochloa crus-galli) | inhibition at 375 g/ha (Cyperus serotinus; 3 WAT) | inhibition at 375 g/ha (Cyperus serotinus; 5 WAT) | inhibition at 375 g/ha (Cyperus serotinus; 7 WAT) | inhibition at 750 g/ha (Cyperus serotinus; 3 WAT) | inhibition at 750 g/ha (Cyperus serotinus; 5 WAT) | inhibition at 750 g/ha (Cyperus serotinus; 7 WAT) | inhibition at 1500 g/ha (Cyperus serotinus; 3 WAT) | further results
CCCCOCN(C(=O)CCl)c1c(C)cccc1C(C)(C)C [Compound C, 2'-methyl-6'-tert-butyl-N-(n-butoxymethyl)-2-chloroacetanilide] | 82% | 78% | 82% | 92% | 95% | 97% | 98% | 100% | 100% | 98% | 100% | 100% | 4 | 58% | 60% | 43% | 93% | 93% | 82% | 62% | inhibition at 1500 g/ha (Cyperus serotinus; 5 WAT): 87%; inhibition at 1500 g/ha (Cyperus serotinus; 7 WAT): 83%; inhibition at 3000 g/ha (Cyperus serotinus; 3 WAT): 95%; inhibition at 3000 g/ha (Cyperus serotinus; 5 WAT): 100%; inhibition at 3000 g/ha (Cyperus serotinus; 7 WAT): 100%; selectivity factor (GR15/GR85), CS in transplant rice (Cyperus serotinus): 4
CCCCOCCN(C(=O)CCl)c1c(CC)cccc1CC [Compound B, 2',6'-diethyl-N-(n-butoxyethyl)-2-chloroacetanilide] | 57% | 55% | 47% | 68% | 53% | 50% | 90% | 80% | 85% | 95% | 95% | 92% | 2 | 93% | 100% | 77% | 78% | 67% | 67% | 87% | inhibition at 1500 g/ha (Cyperus serotinus; 5 WAT): 85%; inhibition at 1500 g/ha (Cyperus serotinus; 7 WAT): 67%; inhibition at 3000 g/ha (Cyperus serotinus; 3 WAT): 75%; inhibition at 3000 g/ha (Cyperus serotinus; 5 WAT): 72%; inhibition at 3000 g/ha (Cyperus serotinus; 7 WAT): 65%; selectivity factor (GR15/GR85), CS in transplant rice (Cyperus serotinus): 1
